Row | SMILES | melting point [°C]
1 | CCCCCNc1c(C(=O)OCC)cnc2cn[nH]c12 | 153 to 155
2 | CON(Cc1nc2c(N)nc(C)c(C)c2n1CC(C)C)C(=O)C1CC1 | 135 to 137
3 | CCC[C@H]1CC[C@H]([C@H]2CC[C@H](c3ccc(C#N)cc3)CC2)CC1 | 55
4 | C=Cc1nc(C(=O)OC)c(Cl)c(N)c1F | 68 to 71
5 | c1ccc(C2CCc3ccccc3S2)cc1 (stereo not given) | 45 to 49
6 | CCCCCCCCCCCCCCCCCCOc1cc(N)cc(OC(C)=O)c1 | 73 to 74
7 | COn1c(C)nc(N2CCc3ccccc3CC2)c(C#N)c1=O | 144 to 145
8 | O=C1OC(COc2ccc(Cl)cc2Cl)OC1c1ccccc1 (stereo not given) | 105 to 107
9 | COC(=O)C1C=CCN2C(=O)C(C)(CCOS(C)(=O)=O)C(=O)N12 (stereo not given) | 104 to 105
10 | NS(=O)(=O)c1cscn1 | 142 to 146
11 | COc1ccc(N2CN(c3ccccc3)C(N)=C3C=NN=C32)cc1 | 204 to 206
12 | CCc1noc2c(Cl)c3c(cc12)CC(C(=O)O)O3 (stereo not given) | 213 to 215
13 | Nc1cc(Br)cnc1CCCCNc1nccc(=O)[nH]1 | 130 to 135
14 | N#Cc1cc(-c2ccccc2Cl)c[nH]c1=O | 252 to 254
15 | N#Cc1ncn(Cc2ccccc2)c1C#N | 123 to 125
16 | O=c1[nH]ncc2c(O)cccc12 | 351 to 355
17 | O=C(CCC1CC1)N1C(=O)OC[C@@H]1Cc1ccccc1 | 42 to 43
18 | CN(C)C(=O)ON=C1SC(=C(C#N)C#N)SC1(C)C | 175 to 177
19 | Cc1ccnc2c1N(O)C(=O)c1cccnc1N2C1CC1 | 239 to 241
20 | N#Cc1nn(-c2c(Cl)cc(C(F)(F)F)cc2Cl)c([N+](=O)[O-])c1OC(F)F | 72.5 to 74
21 | Cc1cc(O)ccc1-n1cc(C(=O)O)c(=O)cc1C=NN1CCOCC1 | 267 to 268
22 | O=c1[nH]c(=Cc2cccs2)c(=O)[nH]c1=Cc1ccc(OCc2ccccc2)cn1 | 215 to 217

Second part, the compound after the results:

Row | melting point [°C] | SMILES
23 | 95 to 97 | COC(=O)c1c(C)nc(C)c(C(=O)OCC2CCCO2)c1-c1cccc(O)c1 (stereo not given)
24 | 146 to 149 | CNC(=O)c1c(-c2ccccc2)noc1CC(=O)c1ccccn1
25 | 268 to 270 | O=C1CC2(C(=O)N1)C(=O)N(Cc1ccc(Cl)c(Cl)c1)c1ccc(Cl)cc12 (stereo not given)
26 | 181 to 183 | COc1ccc(-c2ccc(C(=O)NO)cc2)cc1OC1CCCC1
27 | 217 to 218 | Cc1nc(N2CCCC(Cc3ccc(C(F)(F)F)cc3)C2=O)sc1C(=O)NCc1ccccc1 (stereo not given)
28 | 105 to 107 | COc1cc(Cc2ccc(N)c(C#N)c2)cc(OC)c1
29 | 98 | Cc1ccc(CCCNC(=O)Cc2ccc(OCCN)c([N+](=O)[O-])c2)cc1C
30 | 212 to 213 | Cc1nc(-c2ccccc2)nc(OCC(=O)Nc2ccccc2)c1C
31 | 224 to 227 | COC(=O)c1ccc2nc3n(c(=O)c2c1)CCC3=Cc1ccccc1
32 | 206 to 207 | CC1(C)CCC(C)(C)c2cc(NC(=O)c3ccc(C(=O)O)cn3)ccc21
33 | 154 to 155 | COc1ccc(-c2cc3cc(F)c(F)cc3[nH]2)cc1NCc1cccc(C#N)c1
34 | > 300 | CCOC(=O)CCNC(=O)Nc1cc(-c2ccc3cc(NS(C)(=O)=O)ccc3c2)c(OC)c(C(C)(C)C)c1
35 | 70 | COC(=O)c1ccc(C(C)(O)c2cc3cc(C(F)(F)F)ccc3n2S(=O)(=O)c2cccc(C(C)(C)C)c2)cc1 (stereo not given)
36 | 59 to 61 | CC(C)c1nc(CN(C)C(=O)N[C@H](C(=O)N[C@@H](Cc2ccccc2)C[C@H](O)[C@H](Cc2ccccc2)NC(=O)OCc2cnco2)C(C)C)cs1
37 | 167 to 170 | COc1cc(OC)c2c(=O)[nH]c(-c3ccc(OCC[N+]4([O-])CCCC4)c(-c4ccc(S(C)(=O)=O)cc4)n3)nc2c1
38 | 166 to 168 | CCOC(=O)c1c(O)c2cnc(SC)nc2n(C)c1=O
39 | 50 to 51 | CCN(CC)CCOc1ccc(C(O)(CC)c2ccc(Cl)cc2)cc1 (stereo not given)
40 | > 300 | COc1cc(OC)nc(-n2c(N)nc3cc(C)ccc32)n1
